Data published in patent publication US6737383B1, “Herbicidal oxadiazolidines” (priority 1999, dated 2004).

What was measured:
[1] = tested on: corn; test: Test B pre/postemergence corn; format: in vivo, Zea mays
In short: (§1)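 Response is a visual 0-to-10 score relative to untreated plants, where 0 means no effect and 10 means complete control, taken twelve to sixteen days after application. Treatments went onto soil at planting and onto foliage of 1- to 4-leaf plants, using a surfactant-containing non-phytotoxic solvent.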

[2] = tested on: crabgrass; test: Test B pre/postemergence crabgrass; format: in vivo, Digitaria sanguinalis
In short: as §1

[3] = tested on: pigweed; test: Test B pre/postemergence pigweed; format: in vivo, Amaranthus retroflexus
In short: as §1

[4] = tested on: wheat; test: Test B pre/postemergence wheat; format: in vivo, Triticum aestivum
In short: as §1

[5] = tested on: purple nutsedge; test: Test B pre/postemergence purple nutsedge; format: in vivo, Cyperus rotundus
In short: as §1

[6] = tested on: wild oat; test: Test B pre/postemergence wild oat; format: in vivo, Avena fatua
In short: as §1

[7] = tested on: rice; test: Test B flood test rice; format: in vivo, Oryza sativa
In short: (§2)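 Plants were grown to the 2-leaf stage before treatment with test chemical, then held in a greenhouse for twelve to sixteen days. Injury was visually rated against untreated controls on a 0–10 scale, where 0 is no effect and 10 is complete control.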

[8] = tested on: sugar beet; test: Test B pre/postemergence sugar beet; format: in vivo, Beta vulgaris
In short: as §1

[9] = tested on: rape; test: Test B pre/postemergence rape; format: in vivo, Brassica napus
In short: as §1

[10] = tested on: smallflower flatsedge; test: Test B flood test smallflower flatsedge; format: in vivo, Cyperus difformis
In short: as §2

[11] = tested on: giant foxtail; test: Test B pre/postemergence giant foxtail; format: in vivo, Setaria faberii
In short: as §1

[12] = tested on: duck salad; test: Test B flood test duck salad; format: in vivo, Heteranthera limosa
In short: as §2

[13] = tested on: cocklebur; test: Test B pre/postemergence cocklebur; format: in vivo, Xanthium strumarium
In short: as §1

[14] = tested on: morningglory; test: Test B pre/postemergence morningglory; format: in vivo, Ipomoea hederacea
In short: as §1

[15] = tested on: velvetleaf; test: Test B pre/postemergence velvetleaf; format: in vivo, Abutilon theophrasti
In short: as §1

[16] = tested on: soybean; test: Test B pre/postemergence soybean; format: in vivo, Glycine max
In short: as §1

[17] = Postemergence, Rate 125 g/ha, scale of 0 to 10 where 0 is no effect and 10 is complete control
[18] = Preemergence, Rate 62 g/ha, scale 0 to 10 (0 no effect, 10 complete control)
[19] = Preemergence, Rate 125 g/ha, 0 is no effect, 10 is complete control
[20] = Preemergence, Rate 250 g/ha, scale 0 to 10, 0 is no effect, 10 is complete control
[21] = Preemergence, Rate 500 g/ha, scale 0 to 10 (0 no effect, 10 complete control)
[22] = Rate 62 g/ha, Postemergence, scale of 0 to 10 where 0 is no effect and 10 is complete control
[23] = Rate 250 g/ha, Postemergence, scale 0 to 10, 0 is no effect, 10 is complete control
[24] = Rate 500 g/ha, Postemergence, scale 0 to 10
[25] = Rate 62 g/ha, headed Pre-emergence (flood test species), scale 0 to 10 (0 no effect, 10 complete control)
[26] = Rate 125 g/ha, Pre-emergence, flood test species, scale 0 to 10 where 0 is no effect and 10 is complete control
[27] = Rate 250 g/ha, headed Pre-emergence (flood test species), scale 0 to 10 (0 no effect, 10 complete control)
[28] = Rate 500 g/ha, headed Pre-emergence (flood test species), scale 0 to 10 (0 no effect, 10 complete control)

CC(C)N(C(=O)n1oc(=O)n(C(C)(C)C)c1=O)c1ccccc1 [Compound 129]
Corn plant response rating [1, 17]: 0 | Corn plant response rating [1, 18]: 0 | Corn plant response rating (0 to 10 scale) [1, 19]: 0 | Corn plant response rating [1, 20]: 2 | Corn plant response rating [1, 21]: 4 | Corn plant response rating [1, 22]: 0 | Plant response rating, Corn [1, 23]: 2 | Corn plant response rating [1, 24]: 4 | Crabgrass plant response rating [2, 17]: 4 | Crabgrass plant response rating [2, 18]: 6 | Crabgrass plant response rating (0 to 10 scale) [2, 19]: 7 | Crabgrass plant response rating [2, 20]: 7 | Crabgrass plant response rating [2, 21]: 9 | Crabgrass plant response rating [2, 22]: 2 | Plant response rating, Crabgrass [2, 23]: 8 | Crabgrass plant response rating [2, 24]: 9 | Redroot pigweed plant response rating [3, 17]: 0 | Redroot pigweed plant response rating [3, 18]: 0 | Redroot pigweed plant response rating (0 to 10 scale) [3, 19]: 2 | Redroot pigweed plant response rating [3, 20]: 2 | Redroot pigweed plant response rating [3, 21]: 7 | Redroot pigweed plant response rating [3, 22]: 0 | Plant response rating, Redroot pigweed [3, 23]: 2 | Redroot pigweed plant response rating [3, 24]: 3 | Wheat plant response rating [4, 17]: 0 | Wheat plant response rating [4, 18]: 0 | Wheat plant response rating (0 to 10 scale) [4, 19]: 0 | Wheat plant response rating [4, 20]: 3 | Wheat plant response rating [4, 21]: 3 | Wheat plant response rating [4, 22]: 0 | Plant response rating, Wheat [4, 23]: 2 | Wheat plant response rating [4, 24]: 2 | Nutsedge plant response rating [5, 17]: 0 | Nutsedge plant response rating [5, 18]: 0 | Nutsedge plant response rating (0 to 10 scale) [5, 19]: 0 | Nutsedge plant response rating [5, 20]: 0 | Nutsedge plant response rating [5, 21]: 0 | Nutsedge plant response rating [5, 22]: 0 | Plant response rating, Nutsedge [5, 23]: 0 | Nutsedge plant response rating [5, 24]: 0 | Wild oats plant response rating [6, 17]: 0 | Wild oats plant response rating [6, 18]: 3 | Wild oats plant response rating (0 to 10 scale) [6, 19]: 5 | Wild oats plant response rating [6, 20]: 6 | Wild oats plant response rating [6, 21]: 6 | Wild oats plant response rating [6, 22]: 0 | Plant response rating, Wild oats [6, 23]: 2 | Wild oats plant response rating [6, 24]: 2 | Rice plant response rating [7, 25]: 0 | Rice plant response rating [7, 26]: 0 | Rice plant response rating [7, 27]: 8 | Plant response rating, Rice [7, 28]: 6 | Sugarbeets plant response rating [8, 17]: 0 | Sugarbeets plant response rating [8, 18]: 2 | Sugarbeets plant response rating (0 to 10 scale) [8, 19]: 3 | Sugarbeets plant response rating [8, 20]: 3 | Sugarbeets plant response rating [8, 21]: 5 | Sugarbeets plant response rating [8, 22]: 0 | Plant response rating, Sugarbeets [8, 23]: 0 | Sugarbeets plant response rating [8, 24]: 0 | Rape plant response rating [9, 17]: 0 | Rape plant response rating [9, 18]: 0 | Rape plant response rating (0 to 10 scale) [9, 19]: 0 | Rape plant response rating [9, 20]: 0 | Rape plant response rating [9, 21]: 0 | Rape plant response rating [9, 22]: 0 | Plant response rating, Rape [9, 23]: 0 | Rape plant response rating [9, 24]: 0 | S. Flatsedge plant response rating [10, 25]: 3 | S. Flatsedge plant response rating [10, 26]: 5 | S. Flatsedge plant response rating [10, 27]: 9 | Plant response rating, S. Flatsedge [10, 28]: 9 | Giant foxtail plant response rating [11, 17]: 6 | Giant foxtail plant response rating [11, 18]: 7 | Giant foxtail plant response rating (0 to 10 scale) [11, 19]: 7 | Giant foxtail plant response rating [11, 20]: 8 | Giant foxtail plant response rating [11, 21]: 9 | Giant foxtail plant response rating [11, 22]: 4 | Plant response rating, Giant foxtail [11, 23]: 9 | Giant foxtail plant response rating [11, 24]: 9 | Ducksalad plant response rating [12, 25]: 5 | Ducksalad plant response rating [12, 26]: 5 | Ducksalad plant response rating [12, 27]: 5 | Plant response rating, Ducksalad [12, 28]: 5 | Cocklebur plant response rating [13, 17]: 0 | Cocklebur plant response rating [13, 18]: 0 | Cocklebur plant response rating (0 to 10 scale) [13, 19]: 0 | Cocklebur plant response rating [13, 20]: 0 | Cocklebur plant response rating [13, 22]: 0 | Plant response rating, Cocklebur [13, 23]: 0 | Cocklebur plant response rating [13, 24]: 0 | Morningglory plant response rating [14, 17]: 4 | Morningglory plant response rating [14, 18]: 0 | Morningglory plant response rating (0 to 10 scale) [14, 19]: 0 | Morningglory plant response rating [14, 20]: 0 | Morningglory plant response rating [14, 21]: 0 | Morningglory plant response rating [14, 22]: 4 | Plant response rating, Morningglory [14, 23]: 8 | Morningglory plant response rating [14, 24]: 8 | Velvetleaf plant response rating [15, 17]: 0 | Velvetleaf plant response rating [15, 18]: 0 | Velvetleaf plant response rating (0 to 10 scale) [15, 19]: 0 | Velvetleaf plant response rating [15, 20]: 4 | Velvetleaf plant response rating [15, 21]: 6 | Velvetleaf plant response rating [15, 22]: 0 | Plant response rating, Velvetleaf [15, 23]: 0 | Velvetleaf plant response rating [15, 24]: 0 | Soybean plant response rating [16, 17]: 2 | Soybean plant response rating [16, 18]: 0 | Soybean plant response rating (0 to 10 scale) [16, 19]: 0 | Soybean plant response rating [16, 20]: 0 | Soybean plant response rating [16, 21]: 2 | Soybean plant response rating [16, 22]: 1 | Plant response rating, Soybean [16, 23]: 4 | Soybean plant response rating [16, 24]: 4
